Assay results from US10047081B2, “BACE1 inhibitors” (Hoffmann-La Roche Inc., priority 2015, dated 2018).
pIC50: −log10 of the molar value.

What was measured:
Aβ40 in brain = assay: Lowering of Aβ40 in brain of wild-type mice; format: in vivo; conditions: brain Aβ40 as % of control (vehicle group), 30 mg/kg per os, mouse, after 4 h
Procedure: Lowering of Aβ40 in Brain of Wild-Type Mice:
Animals and Housing Conditions.
Animals were maintained in a 12/12 h light/dark cycle, with lights starting at 6 a.m., and experiments were conducted during the light phase. Animal housing and experimental procedures were in line with ethical and legal guidelines and were authorized by local veterinary authorities.
Female C57B1/6J mice were treated with a dose of 30 mg/kg of the compounds, 3-4 animals per treatment group. The test compound was dissolved in 5% EtOH, 10% Solutol, and was applied per os at 10 mL/kg. After 4 h, the animals were sacrificed and brain and plasma were collected. The brain was cut into halves and immediately frozen on dry ice. Brain was used for measurement of Aβ40 and plasma was used for determination of compound exposure. […] Brain tissue was homogenized in 2% DEA buffer in a Roche MagnaLyser (20″, 4000 rpm) and subsequently centrifuged for 1 h at 100000 g. DEA was reduced to 0.2% in 50 mM NaCl and one-half of the DEA lysate was passed over an Oasis Solid phase extraction plate (Waters; cat. no. 186000679), which had been activated with MeOH and equilibrated in dH2O (1 mL each). After washes in 10% and 30% MeOH (1 mL each), the Aβ-peptides were eluted in 0.8 mL of 2% NH4OH in 90% MeOH. The eluate was dried over a N2 flow, and the dried sample was reconstituted in 30 μL of AlphaLISA assay buffer. Aβ40 was determined by an AlphaLISA assay (Perkin-Elmer). In a white 96-well, half area microplate (Perkin-Elmer cat. no. 6005561), 20 μL of the reconstituted sample were mixed with 5 μL of biotinylated BAP-24 (specific for C-terminus of Aβ40) (Brockhaus, M.; Grunberg, J.; Rohrig, S.; Loetscher, H.; Wittenburg, N.; Baumeister, R.; Jacobsen, H.; Haass, C. Caspasemediated cleavage is not required for the activity of presenilins in amyloidogenesis and NOTCH signaling. NeuroReport 1998, 9, 1481-1486) stock=4.4 mg/mL, f.c.5.5 μg/mL), and 5 μL 252Q6 acceptor beads (252Q6 antibody, Invitrogen AMB0062) had been previously conjugated with AlphaLISA Acceptor beads (Perkin-Elmer cat. no. 6772002); final dilution 1:500). The mix was incubated for 1 h at RT in the dark. Then 20 μL of Streptavin-coated Donor Beads (Perkin-Elmer cat. no. 6760002, final dilution 1:125) were added and this final mix was incubated in the dark for another 30 min at RT before RFU was measured in an AlphaScreen Reader (Perkin-Elmer Envision 2104). The value obtained for Ap40 in the treated animals was related to the value in the vehicle group and is given in %. Alternatively a commercial ELISA was used for Aβ40 determination (Wako ELISA: (“Human/Rat β Amyloid (40) ELISA kit Wako II”; cat nr. 294-64701) following the manufacture's instruction. Also here the Aβ-lowering efficacy was calculated as percentage of the vehicle group.

CYP3A4 = target: T1, CYP3A4 (Homo sapiens, UniProt P08684); assay: CYP inhibition assay, human liver microsomes; format: in vitro ADME; conditions: human liver microsomes, substrate midazolam; read-out: CYP IC50 3A4
T1 construct: 0.2 mg/ml pooled human liver microsomes; from tissue; host or cells: pooled human liver microsomes
Procedure: (§1) Inhibition of cytochromes P450 (CYPs) 2C9, 2D6 and 3A4 was assessed using human liver microsomes and CYP-selective substrate metabolism reactions. 50 μl incubations were made up containing (finally) 0.2 mg/ml pooled human liver microsomes, 5 μM substrate (diclofenac for CYP2C9 [4′hydroxylase], dextromethorphan for CYP2D6 [O-demethylase] or midazolam for CYP3A4 [1′hydroxylase]), 0.25 μL DMSO containing test inhibitor and NADPH regenerating system. Test inhibitor concentrations of 50, 16.7, 5.6, 1.9, 0.6 and 0.2 μM were assessed in singlicate. Incubations were prewarmed to 37° C. for 10 minutes before initiation by addition of NADPH regenerating system. Incubations were quenched after 5 minutes (20 minutes for dextromethorphan) by addition of 50 μl cold acetonitrile containing 20 ng/ml 4-OH-diclofenac-13C6, 20 ng/mL dextrorphan-D3 and 20 ng/mL 1-OH-midazolam-D4. Quenched incubates were stored at −20° C. for at least 1 hour before centrifugation (20,000× g, 20 minutes). Supernatants were removed and diluted 1:1 with water prior to analysis using a RapidFire sample injector system and API4000 mass spectrometer. Peak areas for substrate, metabolite and stable-labelled metabolite standard were determined using MS/MS. The peak area ratios between the metabolite generated by the enzymatic reaction and the internal standard were used in subsequent calculations. The percentage of (DMSO) control activity was calculated for each incubate and IC50 values estimated by non-linear regression. Sulfaphenazole, quinidine or ketoconazole were tested in each CYP2C9, CYP2D6 or CYP3A4 inhibition experiment, respectively, to ensure assay sensitivity and reproducibility. (Validated assays for human cytochrome P450 activities, R. L. Walsky and R. S. Obach, Drug Metabolism and Disposition 32: 647-660, 2004. and S. Fowler and H. Zhang, The AAPS Journal, Vol. 10, No. 2, 410-424, 2008)

CYP2C9 = target: T2, CYP2C9 (Homo sapiens, UniProt P11712); assay: CYP inhibition assay, human liver microsomes; format: in vitro ADME; conditions: human liver microsomes, substrate diclofenac; read-out: CYP IC50 2C9
T2 construct: 0.2 mg/ml pooled human liver microsomes; from tissue; host or cells: pooled human liver microsomes
Procedure: as §1

CYP2D6 = target: T3, CYP2D6 (Homo sapiens, UniProt P10635); assay: CYP inhibition assay, human liver microsomes; format: in vitro ADME; conditions: human liver microsomes, substrate dextromethorphan; read-out: CYP IC50 2D6
T3 construct: 0.2 mg/ml pooled human liver microsomes; from tissue; host or cells: pooled human liver microsomes
Procedure: as §1

T1 sequence (P08684 whole entry): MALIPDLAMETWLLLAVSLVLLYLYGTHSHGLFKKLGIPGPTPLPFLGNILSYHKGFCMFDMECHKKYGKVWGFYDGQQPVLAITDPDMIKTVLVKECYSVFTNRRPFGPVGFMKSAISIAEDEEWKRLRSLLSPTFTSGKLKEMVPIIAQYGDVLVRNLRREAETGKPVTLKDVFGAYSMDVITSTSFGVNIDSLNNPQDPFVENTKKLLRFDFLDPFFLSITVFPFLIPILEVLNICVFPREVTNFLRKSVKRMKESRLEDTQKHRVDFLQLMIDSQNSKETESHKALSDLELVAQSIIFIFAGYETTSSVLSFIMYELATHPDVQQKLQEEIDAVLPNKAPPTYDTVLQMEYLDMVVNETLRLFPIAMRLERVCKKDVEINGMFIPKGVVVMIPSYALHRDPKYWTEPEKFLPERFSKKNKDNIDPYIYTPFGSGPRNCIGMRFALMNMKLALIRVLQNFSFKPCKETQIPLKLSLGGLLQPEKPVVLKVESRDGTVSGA
T2 sequence (P11712 whole entry): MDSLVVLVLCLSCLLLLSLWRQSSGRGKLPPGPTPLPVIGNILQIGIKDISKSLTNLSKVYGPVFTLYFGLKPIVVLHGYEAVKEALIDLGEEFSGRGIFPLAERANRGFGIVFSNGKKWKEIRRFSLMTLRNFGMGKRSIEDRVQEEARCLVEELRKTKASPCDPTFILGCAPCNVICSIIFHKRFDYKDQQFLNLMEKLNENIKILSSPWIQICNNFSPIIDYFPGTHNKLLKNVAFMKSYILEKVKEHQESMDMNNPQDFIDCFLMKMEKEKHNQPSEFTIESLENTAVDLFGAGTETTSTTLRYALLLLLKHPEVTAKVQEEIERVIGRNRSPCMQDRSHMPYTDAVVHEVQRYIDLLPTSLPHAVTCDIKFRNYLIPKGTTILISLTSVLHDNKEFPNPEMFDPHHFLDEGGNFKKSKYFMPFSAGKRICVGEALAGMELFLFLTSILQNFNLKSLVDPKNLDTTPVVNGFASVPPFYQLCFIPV
T3 sequence (P10635 whole entry): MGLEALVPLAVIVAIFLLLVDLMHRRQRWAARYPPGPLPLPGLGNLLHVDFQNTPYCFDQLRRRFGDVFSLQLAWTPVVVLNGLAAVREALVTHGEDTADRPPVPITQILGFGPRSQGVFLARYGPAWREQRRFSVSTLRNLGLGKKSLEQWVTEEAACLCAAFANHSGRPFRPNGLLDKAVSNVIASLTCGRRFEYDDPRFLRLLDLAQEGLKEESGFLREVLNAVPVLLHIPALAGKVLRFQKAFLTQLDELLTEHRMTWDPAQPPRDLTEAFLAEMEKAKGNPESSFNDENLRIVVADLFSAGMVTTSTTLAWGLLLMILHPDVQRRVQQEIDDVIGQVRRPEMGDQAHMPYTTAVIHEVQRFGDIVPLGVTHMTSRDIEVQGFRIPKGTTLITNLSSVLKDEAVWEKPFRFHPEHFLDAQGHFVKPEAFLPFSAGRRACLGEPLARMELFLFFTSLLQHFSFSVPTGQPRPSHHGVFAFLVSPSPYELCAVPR

Structure (SMILES) | in vivo effect (Aβ40 in brain) | pIC50 (CYP3A4) | pIC50 (CYP2C9) | pIC50 (CYP2D6)
CN=[S@@]1(=O)C[C@@](C)(c2cc(-c3cc(-c4cnc(OCC(F)F)cn4)no3)ccc2F)N=C(N)C1(C)C [Example 5, (1R,3R)-5-amino-3-(5-(3-(5-(2,2-difluoroethoxy)pyrazin-2-yl)isoxazol-5-yl)-2-fluorophenyl)-3,6,6-trimethyl-1-(methylimino)-3,6-dihydro-2H-1,4-thiazine 1-oxide 2,2,2-trifluoroacetate] | A (A = less than 60% of control @ 30 mg/kg mouse) | < 5.00 | < 5.00 | –
CN=[S@@]1(=O)C[C@@](C)(c2cc(-c3cc(-c4ncc(Cl)cn4)no3)ccc2F)N=C(N)C1(C)C [Example 6, (1R,3R)-5-amino-3-(5-(3-(5-chloropyrimidin-2-yl)isoxazol-5-yl)-2-fluorophenyl)-3,6,6-trimethyl-1-(methylimino)-3,6-dihydro-2H-1,4-thiazine 1-oxide 2,2,2-trifluoroacetate] | A (A = less than 60% of control @ 30 mg/kg mouse) | < 5.00 | < 5.00 | < 5.00
CN=[S@@]1(=O)C[C@@](C)(c2cc(-c3cc(-c4cnc(OC)cn4)no3)ccc2F)N=C(N)C1(C)C [Example 7, (1R,3R)-5-amino-3-(2-fluoro-5-(3-(5-methoxypyrazin-2-yl)isoxazol-5-yl)phenyl)-3,6,6-trimethyl-1-(methylimino)-3,6-dihydro-2H-1,4-thiazine 1-oxide 2,2,2-trifluoroacetate] | B (B = less than 90% of control @ 30 mg/kg mouse) | < 5.00 | < 5.00 | < 5.00
[2H]C([2H])([2H])N=[S@@]1(=O)C[C@@](C)(c2cc(-c3cc(-c4cnc(OC)cn4)no3)ccc2F)N=C(N)C1(C)C [Example 24, (1R,3R)-3-[2-fluoro-5-[3-(5-methoxypyrazin-2-yl)isoxazol-5-yl]phenyl]-3,6,6-rimethyl-1-oxo-1-(trideuteriomethylimino)-2H-1,4-thiazin-5-amine 2,2,2-trifluoroacetate] | A (A = less than 60% of control @ 30 mg/kg mouse) | < 5.00 | < 5.00 | < 5.00
